Blank lines part the entries; values can stand above or below the molecule they belong to.
How the values were obtained:
Type in all cases: physicochemical
[1] = Stability of VD2 vs VD2 cocrystals (beta-sitosterol, orcinol) under two stress conditions, solid form analysed periodically by PXRD; details: for stability under both stress conditions (in words): 25° C./57% RH and 40° C./75% RH
Method: The stability of the VD2 cocrystal with beta-sitosterol and VD2 cocrystal with orcinol was studied and compared to the stability of VD2 (Form A) under two stress conditions. The samples were stored under both stress conditions inside a Series FD Binder chamber and they were analyzed periodically by PXRD. The two stress conditions were the following: • condition A: 25° C. and 57% relative humidity; • condition B: 40° C. and 75% relative humidity.
A saturated solution of sodium bromide salt (for 57% RH) and a saturated solution of sodium chloride (for 75% RH) were used to control relative humidity.

[2] = Dissolution rate of tablets in FaSSIF v2 medium (small-scale dissolution assay, UV quantification, Noyes-Whitney fit); details: FaSSIF v2 (pH 6.5), 25° C.; for dissolution rate: 120 minutes, 3 mm tablet
Method: Molar extinction coefficients of VD2, VD3 and of the coformer were determined by UV-metric titration using a GIpKa™ titrator (Sirius Analytical Instruments, UK). Briefly, a 10 mM stock solution of sample was prepared in DMSO. 50 μL of sample stock solution and 0.25 mL of a 15 mM potassium phosphate buffer were added to 10 mL of a 0.15 M KCl solution, which in turn contained 17.9 mg of FaSSIF v2 powder. The pH of the sample solution was adjusted to 2 with 0.5 M HCl before starting the titration, and then the titration was done using 0.5 M KOH up to pH 12. The UV absorption spectra (between 250 and 450 nm) of the solution were recorded at each titrant addition by a fiber optic dip-probe. The collected data were refined through the RefinamentPro software, and the pKa values and Molar Extinction Coefficients obtained by Target Factor Analysis.
• Tablet production: tablets of 3 mm diameter were done using a manual hydraulic tablet press (Applied Measurements Ltd, UK). The applied pressure was 100 Kg for 2 min. From 6 to 10 mg of each solid form, vitamin or cocrystal, were weighted. The total exposed surface area was […]. • Medium: FaSSIF v2 (pH 6.5), with corresponding amount of phosphoric (28.4 mM) acid instead of maleic acid. • Dissolution tests were performed with a small-scale dissolution assay installed in a GIpKa™ titrator (Sirius Analytical Instruments, UK). • Dissolution time and temperature: 120 minutes and 25° C. • Procedure: 15 mL of FaSSIF v2 was added into the sample vial containing the tablet. Spectra collection started immediately after. Spectra were recorded every 30 seconds between 250 and 450 nm through a Sirius D-PAS spectrometer with a bifurcated optic fibre dip probe (Hellma Analytics). The medium was stirred at a constant rate.
The concentration of cholecalciferol (VD3) or ergocalciferol (VD2) in solution at each time point is determined from the spectroscopic data by applying the Beer-Lambert law, using previously determined molar extinction coefficients of the pure APIs and the coformers. Spectrum regions where signal is saturated (A>1.5) or presenting medium interferences were discarded. Then, the concentration data were converted into absolute sample quantities, and used to generate the graphs showing the sample quantity vs. time.
Dissolution rate is obtained through the fit of the first order Noyes-Whitney exponential equation to the data: […]
In this equation, [X]t is the weight in grams of compound in solution at the experiment time (min); S is the extrapolated solubility (g) of the vitamin; kd is the rate constant for dissolution (min^−1); and t0 (min) is a term allowing for a temporal offset. Results are calculated using a refinement process in which S, kd and t0 are varied in order to minimize the root mean square deviation between the modelled concentrations and the measured concentrations. The dissolution rate (g min^−1) is given by the product kdS (T. Gravestock et al., Anal. Methods, 2011, 3, 560).

[3] = Stability of VD3 vs VD3:orcinol cocrystal under stress conditions (40° C.-75% RH), solid form analysed periodically by PXRD
Method: The samples were stored under these conditions inside a Series FD Binder chamber and they were analyzed periodically by PXRD. A saturated solution of sodium chloride (75%) was used to control relative humidity.

[4] = Stability of VD3:resorcinol cocrystal vs commercial VD3 in a mineral-vitamin premix containing choline chloride (HPLC-MS)
Method: The stability of the VD3:resorcinol cocrystal mixed in a premix that was a standard mineral-vitamin mix containing choline was studied under normal and high environmental temperature/humidity and compared to the stability of commercial VD3 for animal nutrition (Orffa D3 500) in the same premix under de same conditions.
• 25° C. and 57% humidity (temperature controlled chambers with a saturated solution of NaBr to maintain humidity at 57%); • 40° C. and 75% humidity (temperature controlled chambers with a saturated solution of NaCl to maintain humidity at 75%).
The mineral mix was supplemented to contain 750,000 UI/kg Vitamin A, 5,000 mg/kg vitamin E and 12.5% choline chloride (choline chloride, vegetal coating, 60%). VD3 final content was 1,600,000 UI/Kg (both for the cocrystal VD3:resorcinol and for the commercial VD3.
Samples (2 g) were weighted in 50 mL plastic tubes and incubated in the experimental conditions (see above). Samples for each individual time were incubated in quadruplicates to account for potential variation. Samples were prepared to be retrieved from incubators at 2, 4, 8 and 12 weeks. After each time, samples were processed and analyzed immediately (no storage).
Samples were subjected to an extraction process done in the incubation tube with the full sample to avoid sub-sampling problems. Extracted supernatant was analysed for vitamin D using and HPLC (Model 1260 Series, Agilent, Darmstadr, Germany) coupled with a MS-QQQ (Model G6420, Agilent) against a calibrated curve using a standard vitamin D3. Results are reported as a percent degradation compared with the original Vitamin concentration.

[5] = 40° C./75% H, premix with choline chloride

- Solid form (PXRD) under stress conditions ([1]; 25° C.-57% RH, 0 days): Form A
- Solid form (PXRD) under stress conditions ([1]; 25° C.-57% RH, 370 days): Amorphous phase
- stability under both stress conditions (in words) [1]: very low stability
- Solid form (PXRD) under stress conditions ([1]; 40° C.-75% RH, 0 days): Form A
- Solid form (PXRD) under stress conditions ([1]; 40° C.-75% RH, 210 days): Liquid phase
- time at which conversion into an amorphous phase started ([1]; both stress conditions): ≤ 25 days
- dissolution rate [2]: 0.74 ± 0.23 nmol/min
SMILES: C=C1CC[C@H](O)C/C1=C/C=C1\CCC[C@]2(C)[C@@H]([C@H](C)/C=C/[C@H](C)C(C)C)CC[C@@H]12 [VD2, ergocalciferol]

SMILES: C=C1CC[C@H](O)C/C1=C/C=C1\CCC[C@]2(C)[C@@H]([C@H](C)CCCC(C)C)CC[C@@H]12 [VD3, cholecalciferol, reference compound]
- stability under stress conditions (in words) [3]: very low stability
- time to conversion into a liquid phase [3]: five
- Solid form (PXRD) under stress conditions ([3]; 0 days): Form A
- Solid form (PXRD) under stress conditions ([3]; 5 days): liquid
- dissolution rate [2]: 0.58 ± 0.14 nmol/min
- stability in premix, comparison of the two environmental conditions ([4]; 25° C./57% H vs 40° C./75% H): more stable at 25° C./57% H compared with 40° C./75% H

SMILES: C=C1CCC(O)CC1=CC=C1CCCC2(C)C1CCC2C(C)C=CC(C)C(C)C.C=C1CCC(O)CC1=CC=C1CCCC2(C)C1CCC2C(C)CCCC(C)C (centres unmarked) [VD3-VD2]
- dissolution rate [2]: 0.63 ± 0.21 nmol/min

SMILES: C=C1CCC(O)CC1=CC=C1CCCC2(C)C1CCC2C(C)C=CC(C)C(C)C.C=C1CCC(O)CC1=CC=C1CCCC2(C)C1CCC2C(C)C=CC(C)C(C)C.CCC(CCC(C)C1CCC2C3CC=C4CC(O)CCC4(C)C3CCC12C)C(C)C (stereo not drawn) [VD2:beta-sitosterol]
- time remained as the same starting solid form ([1]; 25° C. and 57% of relative humidity): ≥ 370 days
- stability under both stress conditions (in words) [1]: very high stability
- time remained as the same starting solid form ([1]; 40° C. and 75% of relative humidity): ≥ 25 days
- Solid form (PXRD) under stress conditions ([1]; 40° C.-75% RH, 210 days): Amorphous
- Solid form (PXRD) under stress conditions ([1]; 40° C.-75% RH, 370 days): Amorphous

- stability under stress conditions (in words) [3]: very high stability
SMILES: C=C1CCC(O)CC1=CC=C1CCCC2(C)C1CCC2C(C)CCCC(C)C.Cc1cc(O)cc(O)c1 (centres unmarked) [VD3:orcinol]

- dissolution rate [2]: 0.94 ± 0.22 nmol/min
- stability in premix compared with VD3 ([4]; 25° C./57% H, premix with choline chloride): more stable than VD3
- change of stability in premix [4, 5]: sharp reduction in stability
- stability in premix compared with commercial VD3 [4, 5]: better performance than commercial VD3
- stability in premix compared with VD3 ([4]; both conditions (25° C./57% H and 40° C./75% H)): more stable than VD3
SMILES: C=C1CCC(O)CC1=CC=C1CCCC2(C)C1CCC2C(C)CCCC(C)C.Oc1cccc(O)c1 (centres unmarked) [VD3-resorcinol]
- dissolution speed compared with other solid forms [2]: dissolved faster than VD2, VD3, or VD2-VD3
